Experiment: Delivery and clearance of fluorescent molecule in suprachoroidal space of live rabbits
Format: in vivo
Conditions: live rabbit
Method: The delivery of a fluorescent molecule (sodium fluorescein) to the suprachoroidal space was evaluated using rabbits according to approved live animal experimental protocols. A one dimensional scan of the eye (through line of sight) was taken within the first five minutes after injection to determine the dispersion of the fluorescent molecule in the eye (FIG. 14). The y-axis indicates the fluorescent intensity (i.e., the concentration) and the x-axis represents the position in the eye from front (160) to back (0). Thus, the results illustrate that within the first 5 minutes after injection, the fluorescein had already flowed through the suprachoroidal space to the back of the eye, with some remaining at the initial insertion site.
Similar scans were taken to evaluate the rate of clearance of fluorescein from the suprachoroidal space over time (FIG. 15). The fluorescent intensity was measured in two regions of the eye (the suprachoroidal space and mid-vitreous region) over time.

- Time to substantial clearance from the suprachoroidal space (suprachoroidal injection): ≤ 24 h
- Time after injection by which it had flowed through the suprachoroidal space to the back of the eye (suprachoroidal injection, line of sight scan): ≤ 5 min
SMILES: O=C1OC2(c3ccc(O)cc3Oc3cc(O)ccc32)c2ccccc21 [sodium fluorescein]
- Distribution suprachoroidal space vs mid-vitreous region (fluorescent intensity over time): remains in the suprachoroidal space without passing into the mid-vitreous region

Reference: patent US10905586B2, “Methods and devices for drug delivery to ocular tissue using microneedle” (Emory University, priority 2006, dated 2021)
